The text below walks through data of patent US11655225B2, “Antimycobacterial heterocyclic amides” (Crestone, Inc., priority 2018, dated 2023).

SMILES strings stand for the structures. Values after ≈ are worked out from the molar mass of the structure shown.

The subject of this experiment is M. abscessus. Description: MIC determination, CLSI M24-A. Format: cell-based. As to conditions: Mycobacteroides abscessus, CLSI M24-A.

In the case of `CC1(C(=O)Nc2nc3cc(F)cc(F)c3s2)CCCCC1` [Example 133, N-(5,7-difluoro-1,3-benzothiazol-2-yl)-1-methylcyclohexane-1-carboxamide], the MIC – broadly, the least concentration at which growth counts as inhibited – lay within 2 to 32 µg/mL (≈ 6.44 to 103 µM). As for `CC1(C(=O)Nc2nc3ccc(Br)cc3s2)CCCCC1` [Example 134, N-(6-bromo-1,3-benzothiazol-2-yl)-1-methylcyclohexane-1-carboxamide], the MIC was in the range of 2 to 32 µg/mL (≈ 5.66 to 90.6 µM). In the case of `CC1(C(=O)Nc2nc3ccc(Cl)cc3s2)CCCCC1` [Example 135, N-(6-chloro-1,3-benzothiazol-2-yl)-1-methylcyclohexane-1-carboxamide] it was 2 to 32 µg/mL (≈ 6.48 to 104 µM). The same measure for `CC1(C(=O)Nc2nc3ccc(OC(F)(F)F)cc3s2)CCCC1` [Example 136, 1-methyl-N-[6-(trifluoromethoxy)-1,3-benzothiazol-2-yl]cyclopentane-1-carboxamide]: 2 to 32 µg/mL (≈ 5.81 to 92.9 µM); for `CC1(C(=O)Nc2nc3ccc(OC(F)(F)F)cc3s2)CC2CC2C1` (stereo not drawn) [Example 137, 3-methyl-N-[6-(trifluoromethoxy)-1,3-benzothiazol-2-yl]bicyclo[3.1.0]hexane-3-carboxamide]: 2 to 32 µg/mL (≈ 5.61 to 89.8 µM). In the case of `CCOc1ccc2nc(NC(=O)C3CC4CCCC(C4)C3)sc2c1` (stereo not drawn) [Example 138, N-(6-ethoxy-1,3-benzothiazol-2-yl)bicyclo[3.3.1]nonane-3-carboxamide] it was 2 to 32 µg/mL (≈ 5.81 to 92.9 µM); in that of `O=C(Nc1nc2c(F)cc(F)cc2s1)C1CCCCCC1` [Example 139, N-(4,6-difluoro-1,3-benzothiazol-2-yl)cycloheptanecarboxamide], 2 to 32 µg/mL (≈ 6.44 to 103 µM); in that of `CC12CC3CC(C)(C1)CC(C(=O)Nc1nc4cc(Cl)ccc4o1)(C3)C2` [Example 140, N-(5-chloro-1,3-benzoxazol-2-yl)-3,5-dimethyladamantane-1-carboxamide], 2 to 32 µg/mL (≈ 5.57 to 89.2 µM). As to `O=C(Nc1nc2c(F)c(F)c(F)cc2s1)C1CCCCCC1` [Example 141, N-(4,5,6-trifluoro-1,3-benzothiazol-2-yl)cycloheptanecarboxamide], the MIC lay in the range of 2 to 32 µg/mL (≈ 6.09 to 97.5 µM). In the case of `CC1CC(C(=O)Nc2nc3cc(Cl)cc(Cl)c3o2)CC(C)(C)C1` (stereo not drawn) [Example 142, N-(5,7-dichloro-1,3-benzoxazol-2-yl)-3,3,5-trimethylcyclohexane-1-carboxamide] it was 2 to 32 µg/mL (≈ 5.63 to 90.1 µM); in that of `Cc1cc(C)c2oc(NC(=O)C3CC(C)CC(C)(C)C3)nc2c1` (stereo not drawn) [Example 143, N-(5,7-dimethyl-1,3-benzoxazol-2-yl)-3,3,5-trimethylcyclohexane-1-carboxamide], 2 to 32 µg/mL (≈ 6.36 to 102 µM). The same measure for `CC12CC3CC(C)(C1)CC(C(=O)Nc1nc4c(F)cccc4o1)(C3)C2` [Example 144, N-(4-fluoro-1,3-benzoxazol-2-yl)-3,5-dimethyladamantane-1-carboxamide]: 2 to 32 µg/mL (≈ 5.84 to 93.5 µM); for `COc1ccc2nc(NC(=O)C34CC5CC(C)(CC(C)(C5)C3)C4)oc2c1` [Example 145, N-(6-methoxy-1,3-benzoxazol-2-yl)-3,5-dimethyladamantane-1-carboxamide]: 2 to 32 µg/mL (≈ 5.64 to 90.3 µM); for `CC12CC3CC(C)(C1)CC(C(=O)Nc1nc4ccccc4[nH]1)(C3)C2` [Example 146, N-(1H-1,3-benzodiazol-2-yl)-3,5-dimethyladamantane-1-carboxamide]: 2 to 32 µg/mL (≈ 6.18 to 98.9 µM). As for `CC12CC3CC(C)(C1)CC(C(=O)Nc1nc4ccccc4o1)(C3)C2` [Example 147, N-(1,3-benzoxazol-2-yl)-3,5-dimethyladamantane-1-carboxamide], the MIC is 2 to 32 µg/mL (≈ 6.16 to 98.6 µM). Consider `O=C(Nc1nc2ccc(C(F)(F)F)cc2s1)C1CCCC2(CC2)C1` (stereo not drawn) [Example 148, N-[6-(trifluoromethyl)-1,3-benzothiazol-2-yl]spiro[2.5]octane-5-carboxamide], for which the MIC was 2 to 32 µg/mL (≈ 5.64 to 90.3 µM). The same measure for `CC1CCCC(NC(=O)Nc2nc3ccc(C(F)(F)F)cc3s2)C1` (stereo not drawn) [Example 149, 1-(3-methylcyclohexyl)-3-[6-(trifluoromethyl)-1,3-benzothiazol-2-yl]urea]: 2 to 32 µg/mL (≈ 5.6 to 89.5 µM); for `CC12CC3CC(C)(C1)CC(C(=O)Nc1nc4ccc(C(F)(F)F)cc4o1)(C3)C2` [Example 150, 3,5-dimethyl-N-[6-(trifluoromethyl)-1,3-benzoxazol-2-yl]adamantane-1-carboxamide]: 2 to 32 µg/mL (≈ 5.1 to 81.5 µM); for `CC1CC(C(=O)Nc2nc3cc(Cl)c(Cl)cc3[nH]2)CC(C)(C)C1` (stereo not drawn) [Example 151, N-(5,6-dichloro-1H-1,3-benzodiazol-2-yl)-3,3,5-trimethylcyclohexane-1-carboxamide]: 2 to 32 µg/mL (≈ 5.65 to 90.3 µM). In the case of `CC1CCC(C(=O)Nc2nc3ccc(C(F)(F)F)cc3s2)C1` (stereo not drawn) [Example 152, 3-methyl-N-[6-(trifluoromethyl)-1,3-benzothiazol-2-yl]cyclopentane-1-carboxamide] it was 2 to 32 µg/mL (≈ 6.09 to 97.5 µM); in that of `CC1(C(=O)Nc2nc3cc(Br)ccc3s2)CCCC1` [Example 153, N-(5-bromo-1,3-benzothiazol-2-yl)-1-methylcyclopentane-1-carboxamide], 2 to 32 µg/mL (≈ 5.9 to 94.3 µM); in that of `CC1(C(=O)Nc2nc3c(F)c(F)c(F)cc3s2)CCCCC1` [Example 154, 1-methyl-N-(4,5,6-trifluoro-1,3-benzothiazol-2-yl)cyclohexane-1-carboxamide], 2 to 32 µg/mL (≈ 6.09 to 97.5 µM).

`O=C(Nc1nc2ccccc2o1)C12CC3CC(CC(C3)C1)C2` [Example 155, N-(1,3-benzoxazol-2-yl)adamantane-1-carboxamide] had an MIC of 2 to 32 µg/mL (≈ 6.75 to 108 µM).

Take `O=C(Nc1nc2ccc(OC(F)F)cc2s1)C1CCCCC1` [Example 156, N-[6-(difluoromethoxy)-1,3-benzothiazol-2-yl]cyclohexanecarboxamide]: the MIC is 2 to 32 µg/mL (≈ 6.13 to 98 µM). In the case of `O=C(Nc1nc2c(F)cc(F)cc2s1)C1CCCCC1` [Example 157, N-(4,6-difluoro-1,3-benzothiazol-2-yl)cyclohexanecarboxamide] it was 2 to 32 µg/mL (≈ 6.75 to 108 µM); in that of `CC1CC(C(=O)Nc2nc3ccc(Br)cc3o2)CC(C)(C)C1` (stereo not drawn) [Example 158, N-(6-bromo-1,3-benzoxazol-2-yl)-3,3,5-trimethylcyclohexane-1-carboxamide], 2 to 32 µg/mL (≈ 5.48 to 87.6 µM).

Molecule `O=C(Nc1nc2ccccc2o1)C1CC2CCCC(C2)C1` (stereo not drawn) [Example 159, N-(1,3-benzoxazol-2-yl)bicyclo[3.3.1]nonane-3-carboxamide] gave an MIC of 2 to 32 µg/mL (≈ 7.03 to 113 µM). The same measure for `O=C(Nc1cc2ccccc2s1)C1CCCCCC1` [Example 160, N-(1-benzothiophen-2-yl)cycloheptanecarboxamide]: 2 to 32 µg/mL (≈ 7.32 to 117 µM); for `Cc1cc(C)c2oc(NC(=O)C34CC5CC(C)(CC(C)(C5)C3)C4)nc2c1` [Example 161, N-(5,7-dimethyl-1,3-benzoxazol-2-yl)-3,5-dimethyladamantane-1-carboxamide]: 2 to 32 µg/mL (≈ 5.67 to 90.8 µM). Regarding `COc1ccc2nc(NC(=O)C3CC(C)CC(C)(C)C3)oc2c1` (stereo not drawn) [Example 162, N-(6-methoxy-1,3-benzoxazol-2-yl)-3,3,5-trimethylcyclohexane-1-carboxamide], the MIC was in the range of 2 to 32 µg/mL (≈ 6.32 to 101 µM). The same measure for `CC1CC(C(=O)Nc2nc3ccc(C(F)(F)F)cc3o2)CC(C)(C)C1` (stereo not drawn) [Example 163, 3,3,5-trimethyl-N-[6-(trifluoromethyl)-1,3-benzoxazol-2-yl]cyclohexane-1-carboxamide]: 2 to 32 µg/mL (≈ 5.64 to 90.3 µM); for `CC12CC3CC(C)(C1)CC(C(=O)Nc1nc4cc(Cl)c(Cl)cc4[nH]1)(C3)C2` [Example 164, N-(5,6-dichloro-1H-1,3-benzodiazol-2-yl)-3,5-dimethyladamantane-1-carboxamide]: 2 to 32 µg/mL (≈ 5.1 to 81.6 µM); for `CC1CC(C(=O)Nc2nc3ccccc3o2)CC(C)(C)C1` (stereo not drawn) [Example 165, N-(1,3-benzoxazol-2-yl)-3,3,5-trimethylcyclohexane-1-carboxamide]: 2 to 32 µg/mL (≈ 6.98 to 112 µM). The same measure for `CC1CCCCC1C(=O)Nc1nc2ccccc2s1` (stereo not drawn) [Example 166, N-(1,3-benzothiazol-2-yl)-2-methylcyclohexane-1-carboxamide]: 2 to 32 µg/mL (≈ 7.29 to 117 µM); for `CC1CCCC(C(=O)Nc2nc3c(Cl)cccc3s2)C1` (stereo not drawn) [Example 167, N-(4-chloro-1,3-benzothiazol-2-yl)-3-methylcyclohexane-1-carboxamide]: 2 to 32 µg/mL (≈ 6.48 to 104 µM). With `CC1CCCC(C(=O)Nc2nc3ccc(Cl)cc3s2)C1` (stereo not drawn) [Example 168, N-(6-chloro-1,3-benzothiazol-2-yl)-3-methylcyclohexane-1-carboxamide], the MIC was in the range of 2 to 32 µg/mL (≈ 6.48 to 104 µM). In the case of `CC1CCCC(C(=O)Nc2nc3c(F)cc(F)cc3s2)C1` (stereo not drawn) [Example 169, N-(4,6-difluoro-1,3-benzothiazol-2-yl)-3-methylcyclohexane-1-carboxamide], the MIC was 2 to 32 µg/mL (≈ 6.44 to 103 µM). The same measure for `CC1CCCC(C(=O)Nc2nc3ccc(F)cc3s2)C1` (stereo not drawn) [Example 170, N-(6-fluoro-1,3-benzothiazol-2-yl)-3-methylcyclohexane-1-carboxamide]: 2 to 32 µg/mL (≈ 6.84 to 109 µM); for `CC1(C(=O)Nc2nc3c(F)cc(F)cc3s2)CCCCC1` [Example 171, N-(4,6-difluoro-1,3-benzothiazol-2-yl)-1-methylcyclohexane-1-carboxamide]: 2 to 32 µg/mL (≈ 6.44 to 103 µM).

`CC1(C(=O)Nc2nc3ccc(OC(F)F)cc3s2)CCCCC1` [Example 172, N-[6-(difluoromethoxy)-1,3-benzothiazol-2-yl]-1-methylcyclohexane-1-carboxamide] gave a minimal inhibitory concentration (MIC) of 2 to 32 µg/mL (≈ 5.88 to 94 µM). The same measure for `CC(C)(C)C(=O)Nc1nc2ccc(OC(F)(F)F)cc2s1` [Example 173, 2,2-dimethyl-N-[6-(trifluoromethoxy)-1,3-benzothiazol-2-yl]propanamide]: 2 to 32 µg/mL (≈ 6.28 to 101 µM). Molecule `CC1CC(C(=O)Nc2nc3cccc(O)c3s2)CC(C)(C)C1` (stereo not drawn) [Example 174, N-(7-hydroxy-1,3-benzothiazol-2-yl)-3,3,5-trimethylcyclohexane-1-carboxamide] showed an MIC of 2 to 32 µg/mL (≈ 6.28 to 100 µM). As for `CC1CC(C(=O)Nc2nc3cc(F)c(F)cc3o2)CC(C)(C)C1` (stereo not drawn) [Example 175, N-(5,6-difluoro-1,3-benzoxazol-2-yl)-3,3,5-trimethylcyclohexane-1-carboxamide], the MIC lay within 2 to 32 µg/mL (≈ 6.2 to 99.3 µM). `O=C(Nc1cc2ccccc2s1)C1CCCCC1` [Example 176, N-(1-benzothiophen-2-yl)cyclohexanecarboxamide] had an MIC of 2 to 32 µg/mL (≈ 7.71 to 123 µM). In the case of `CC1CC(C(=O)Nc2nc3ccc(SC(F)(F)F)cc3s2)CC(C)(C)C1` (stereo not drawn) [Example 177, 3,3,5-trimethyl-N-{6-[(trifluoromethyl)sulfanyl]-1,3-benzothiazol-2-yl}cyclohexane-1-carboxamide] it was 2 to 32 µg/mL (≈ 4.97 to 79.5 µM).
